Measured values: patent publication US20180037595A1, “BENZOXABOROLE COMPOUNDS AND USES THEREOF” (GLAXOSMITHKLINE INTELLECTUAL PROPERTY (NO.2) LIMITED, priority 2015, published 2018)
Converted amounts (≈) assume the structure as drawn. Structures can show the parent of a compound that is named as a salt. Where two headings read alike, the source gives them in different places.

Columns and labels:
[1] = test system: M. tuberculosis standard strain Mtb H37Rv; test: MIC determination against mycobacteria (resazurin microtiter assay); type: cell-based, Mycobacterium tuberculosis; details: for MIC: Mycobacterium tuberculosis, H37RV, read-out: Mtb H37Rv MIC (B); for Selectivity Index (A/B): HepG2 cell 48 h Tox50 (A) / Mtb H37Rv MIC (B)
HepG2 cells = test: HepG2 cytotoxicity assay (resazurin); type: cell-based
Mtb LeuRS = Mtb LeuRS (Mycobacterium tuberculosis, UniProt P9WFV1); test: LeuRS aminoacylation assay, IC50 determination; type: biochemical, M. tuberculosis; details: read-out: Mtb LeuRS IC50
Method: For biochemical analyses an N-terminal six histidine-tagged LeuRS was over-expressed in Escherichia coli which were E. coli codon-optimised (GenScript, Piscataway N.J., USA), from human mitochondria and cytoplasm, and M. tuberculosis. N-terminal six histidine-tagged LeuRS proteins were over-expressed and purified according to Novagen (Madison, Wis., USA) using an E. coli BL21(DE3) T7 RNA polymerase over-expression strain.
Experiments were performed in 96-well microtiter plates, using 80 μL reaction mixtures containing 50 mM HEPES-KOH (pH 8.0), 30 mM MgCl2 30 mM KCl, 13 μM L-[^14C]leucine (306 mCi/mmol, Perkin-Elmer), 15 uM total E. coli tRNA (Roche, Switzerland), 0.02% (w/v) BSA, 1 mM DTT, 0.2 μM LeuRS and 4 mM ATP at 30° C. Reactions were started by the addition of 4 mM ATP. After 7 minutes, reactions were quenched and tRNA was precipitated by the addition of 50 μL of 10% (w/v) TCA and transferred to 96-well nitrocellulose membrane filter plates (Millipore Multiscreen HTS, MSHAN4B50). Each well was then washed three times with 100 μL of 5% TCA. Filter plates were then dried under a heat lamp and the precipitated L-[^14C]leucine tRNALeu were quantified by liquid scintillation counting using a Wallac MicroBeta Trilux model 1450 liquid scintillation counter (PerkinElmer, Waltham, Mass., USA). The only difference was with the human cytoplasmic LeuRS when we used tRNA isolated from Brewer's Yeast (Roche Diagnostics GmbH).
Reactions were initiated by the addition of 4 mM ATP. Reactions were stopped after 7 minutes then precipitated and counted to quantify radioactivity. IC50 values were determined using the Graphpad Prism software package (Graphpad Software Inc. (La Jolla, Calif., USA).

E. coli K12 tolC::Tn10 = test: General antimicrobial activity assay (CLSI broth microdilution); type: cell-based; details: Escherichia coli, read-out: MIC: E. coli K12 tolC::Tn10
Method: (§1) Whole-cell antimicrobial activity was determined by broth microdilution using the Clinical and Laboratory Standards Institute (CLSI) recommended procedure, Document M7-A7, “Methods for Dilution Susceptibility Tests for Bacteria that Grow Aerobically”.

P. aeruginosa PA01 = test: as above; type: cell-based; details: Pseudomonas aeruginosa, PA01, read-out: MIC: P. aeruginosa PA01
Method: as §1

A. baumannii ATCC 17978 = test: as above; type: cell-based; details: Acinetobacter baumannii, ATCC17978, read-out: MIC: A. baumannii ATCC 17978
Method: as §1

E. coli K12 = test: as above; type: cell-based; details: Escherichia coli, K12, read-out: MIC: E. coli K12
Method: as §1

Human cyto LeuRS = Human cyto LeuRS (Homo sapiens, UniProt Q9P2J5); test: LeuRS aminoacylation assay, IC50 determination; type: biochemical
[2] = Homo sapiens, HepG2, 48 h, read-out: HepG2 cell 48 h Tox50 (A)

Human cyto LeuRS, sequence (Q9P2J5 whole entry): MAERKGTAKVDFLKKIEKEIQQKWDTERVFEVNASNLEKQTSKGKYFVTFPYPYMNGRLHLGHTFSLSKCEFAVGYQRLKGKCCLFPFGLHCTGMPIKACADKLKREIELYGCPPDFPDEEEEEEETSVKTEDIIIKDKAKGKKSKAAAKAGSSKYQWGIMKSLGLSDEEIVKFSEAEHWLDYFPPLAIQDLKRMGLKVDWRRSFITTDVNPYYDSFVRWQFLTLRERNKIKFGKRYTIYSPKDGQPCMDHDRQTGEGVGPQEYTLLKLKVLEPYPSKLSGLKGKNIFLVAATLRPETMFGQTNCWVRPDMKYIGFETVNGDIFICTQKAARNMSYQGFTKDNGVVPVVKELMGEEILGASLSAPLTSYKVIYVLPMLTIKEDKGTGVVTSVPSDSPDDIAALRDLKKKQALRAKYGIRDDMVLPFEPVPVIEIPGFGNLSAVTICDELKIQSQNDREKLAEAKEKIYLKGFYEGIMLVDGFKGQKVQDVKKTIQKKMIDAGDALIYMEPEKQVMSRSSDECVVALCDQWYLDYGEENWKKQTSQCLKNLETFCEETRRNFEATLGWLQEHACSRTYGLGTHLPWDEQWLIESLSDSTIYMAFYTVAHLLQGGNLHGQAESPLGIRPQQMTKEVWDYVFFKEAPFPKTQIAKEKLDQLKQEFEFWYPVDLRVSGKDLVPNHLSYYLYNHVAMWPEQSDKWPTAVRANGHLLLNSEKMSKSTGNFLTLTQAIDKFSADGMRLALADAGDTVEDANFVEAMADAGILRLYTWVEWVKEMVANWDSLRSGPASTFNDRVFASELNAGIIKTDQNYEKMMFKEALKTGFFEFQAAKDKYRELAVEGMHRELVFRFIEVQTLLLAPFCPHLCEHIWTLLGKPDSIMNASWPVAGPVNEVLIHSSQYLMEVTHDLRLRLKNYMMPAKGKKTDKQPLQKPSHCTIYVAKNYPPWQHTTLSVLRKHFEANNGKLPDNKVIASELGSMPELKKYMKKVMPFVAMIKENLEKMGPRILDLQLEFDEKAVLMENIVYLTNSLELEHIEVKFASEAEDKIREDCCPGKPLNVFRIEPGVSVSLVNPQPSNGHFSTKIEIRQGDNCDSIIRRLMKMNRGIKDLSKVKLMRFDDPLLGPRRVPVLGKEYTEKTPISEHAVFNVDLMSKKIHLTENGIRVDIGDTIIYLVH
Mtb LeuRS, sequence (P9WFV1 whole entry): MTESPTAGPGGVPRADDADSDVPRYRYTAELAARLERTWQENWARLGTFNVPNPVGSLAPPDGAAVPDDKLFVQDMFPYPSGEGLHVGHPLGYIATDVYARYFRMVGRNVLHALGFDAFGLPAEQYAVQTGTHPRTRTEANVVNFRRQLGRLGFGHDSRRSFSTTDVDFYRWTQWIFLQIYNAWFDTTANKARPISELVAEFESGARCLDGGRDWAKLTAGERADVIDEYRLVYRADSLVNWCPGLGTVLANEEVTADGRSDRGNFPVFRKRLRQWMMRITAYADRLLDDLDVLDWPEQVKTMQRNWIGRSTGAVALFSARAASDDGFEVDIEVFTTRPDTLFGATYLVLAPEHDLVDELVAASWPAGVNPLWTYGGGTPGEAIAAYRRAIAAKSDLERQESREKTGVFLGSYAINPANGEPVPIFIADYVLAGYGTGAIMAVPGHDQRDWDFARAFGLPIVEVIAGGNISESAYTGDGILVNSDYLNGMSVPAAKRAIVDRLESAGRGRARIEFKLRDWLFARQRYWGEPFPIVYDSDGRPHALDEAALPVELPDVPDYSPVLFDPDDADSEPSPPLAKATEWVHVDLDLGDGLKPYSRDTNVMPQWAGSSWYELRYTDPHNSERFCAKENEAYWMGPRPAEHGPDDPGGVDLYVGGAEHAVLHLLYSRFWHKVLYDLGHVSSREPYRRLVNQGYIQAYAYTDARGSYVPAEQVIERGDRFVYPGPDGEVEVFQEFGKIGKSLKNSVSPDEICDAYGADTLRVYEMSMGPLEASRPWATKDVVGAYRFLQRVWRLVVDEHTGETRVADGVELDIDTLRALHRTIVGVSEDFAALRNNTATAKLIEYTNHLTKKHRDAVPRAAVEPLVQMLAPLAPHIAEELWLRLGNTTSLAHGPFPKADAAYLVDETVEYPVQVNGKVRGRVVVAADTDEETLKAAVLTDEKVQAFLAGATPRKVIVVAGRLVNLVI

Cl.NCC1OB2OCCOc3ccc(Br)c1c32 (racemic) [Example 1, 3-bromo-7,8-dihydro-2H-1,6,9-trioxa-9a-borabenzo[cd]azulen-2-yl)methanamine hydrochloride]
MIC [1]: 0.18 µM | IC50 (HepG2 cells; [2]): > 50 µM | IC50 (Mtb LeuRS): 0.154 µM

Cl.NCC1OB2OCCOc3ccc(Br)c1c32 (racemic) [Example 1]
Selectivity Index (A/B) ([1]; listed as EXAMPLE 1 G1-Br, hydrochloride): >277 | Selectivity Index (A/B) ([1]; listed as Example 1 G1-Br, hydrochloride): > 277 | MIC (E. coli K12 tolC::Tn10): > 64 µg/mL | MIC (P. aeruginosa PA01): > 64 µg/mL | MIC (A. baumannii ATCC 17978): > 64 µg/mL | MIC (E. coli K12): > 64 µg/mL

Cl.NCC1OB2OCCOc3ccc(Cl)c1c32 (racemic) [Example 3, 3-chloro-7,8-dihydro-2H-1,6,9-trioxa-9a-borabenzo[cd]azulen-2-yl)methanamine hydrochloride]
MIC [1]: 0.47 µM | IC50 (HepG2 cells; [2]): > 50 µM | IC50 (Mtb LeuRS): 0.244 µM

Cl.NCC1OB2OCCOc3ccc(Cl)c1c32 (racemic) [Example 3]
Selectivity Index (A/B) ([1]; listed as EXAMPLE 3 G3-Br, hydrochloride): >106 | Selectivity Index (A/B) ([1]; listed as Example 3 G3-CI, hydrochloride): > 106 | MIC (E. coli K12 tolC::Tn10): > 64 µg/mL | MIC (P. aeruginosa PA01): > 64 µg/mL | MIC (A. baumannii ATCC 17978): > 64 µg/mL | MIC (E. coli K12): > 64 µg/mL

C[C@@]1(CO)COc2ccc(Cl)c3c2B(OC3CN)O1 (single isomer, unassigned) [Example 14, ((2S,8R or 2R,8S)-2-(aminomethyl)-3-chloro-8-methyl-7,8-dihydro-2H-1,6,9-trioxa-9a-borabenzo[cd]azulen-8-yl)methanol]
Selectivity Index (A/B) [1]: >4 | MIC [1]: 1.25 µM (≈ 0.354 µg/mL) | IC50 (HepG2 cells; [2]): > 50 µM | IC50 (Mtb LeuRS): 4.17 µM

Cl.NCC1OB2OCCOc3ccc(F)c1c32 (stereo not drawn) [Example 5, (3-fluoro-7,8-dihydro-2H-1,6,9-trioxa-9a-borabenzo[cd]azulen-2-yl)methanamine hydrochloride)]
MIC [1]: 0.6 µM | IC50 (HepG2 cells; [2]): 49.1 µM | IC50 (Mtb LeuRS): 0.46 µM

Cl.NCC1OB2OCCOc3ccc(F)c1c32 (stereo not drawn) [Example 5]
MIC (E. coli K12 tolC::Tn10): 64 µg/mL | MIC (P. aeruginosa PA01): 4 µg/mL | MIC (A. baumannii ATCC 17978): > 64 µg/mL | MIC (E. coli K12): 32 µg/mL

NC[C@H]1OB2OCCOc3ccc(I)c1c32 [Example 6, (S)-(3-iodo-7,8-dihydro-2H-1,6,9-trioxa-9a-borabenzo[cd]azulen-2-yl)methanamine hydrochloride]
MIC [1]: 0.3 µM | IC50 (HepG2 cells; [2]): 36.4 µM | IC50 (Mtb LeuRS): 0.33 µM

CC1COc2ccc(Cl)c3c2B(O1)OC3CN.Cl (stereo not drawn) [Example 7, (3-chloro-8-methyl-7,8-dihydro-2H-1,6,9-trioxa-9a-borabenzo[cd]azulen-2-yl)methanamine hydrochloride]
Selectivity Index (A/B) [1]: >250 | MIC [1]: 0.2 µM | MIC (E. coli K12 tolC::Tn10): > 64 µg/mL | MIC (P. aeruginosa PA01): > 64 µg/mL | MIC (A. baumannii ATCC 17978): > 64 µg/mL | MIC (E. coli K12): > 64 µg/mL | IC50 (Human cyto LeuRS): > 300 µM | IC50 (HepG2 cells; [2]): > 50 µM | IC50 (Mtb LeuRS): 1.08 µM

CC1COc2ccc(Br)c3c2B(O1)OC3CN.Cl (stereo not drawn) [Example 8, (3-bromo-8-methyl-7,8-dihydro-2H-1,6,9-trioxa-9a-borabenzo[cd]azulen-2-yl)methanamine hydrochloride]
Selectivity Index (A/B) [1]: >167 | MIC [1]: 0.3 µM | MIC (E. coli K12 tolC::Tn10): > 64 µg/mL | MIC (P. aeruginosa PA01): > 64 µg/mL | MIC (A. baumannii ATCC 17978): > 64 µg/mL | MIC (E. coli K12): > 64 µg/mL | IC50 (Human cyto LeuRS): > 300 µM | IC50 (HepG2 cells; [2]): > 50 µM | IC50 (Mtb LeuRS): 1.43 µM

CC1(C)COc2ccc(Br)c3c2B(OC3CN)O1.Cl (stereo not drawn) [Example 9, (3-bromo-8,8-dimethyl-7,8-dihydro-2H-1,6,9-trioxa-9a-borabenzo[cd]azulen-2-yl)methanamine hydrochloride]
Selectivity Index (A/B) ([1]; listed as EXAMPLE 9 G9-Br, hydrochloride): >167 | Selectivity Index (A/B) ([1]; listed as Example 9 G9-Br, hydrochloride): > 167 | MIC [1]: 0.3 µM | MIC (E. coli K12 tolC::Tn10): > 64 µg/mL | MIC (P. aeruginosa PA01): > 64 µg/mL | MIC (A. baumannii ATCC 17978): > 64 µg/mL | MIC (E. coli K12): > 64 µg/mL | IC50 (Human cyto LeuRS): > 300 µM | IC50 (HepG2 cells; [2]): > 50 µM | IC50 (Mtb LeuRS): 1.25 µM

Cl.NC[C@H]1OB2O[C@H](CO)COc3ccc(F)c1c32 [Example 13, ((2S,8R)-2-(aminomethyl)-3-fluoro-7,8-dihydro-2H-1,6,9-trioxa-9a-borabenzo[cd]azulen-8-yl)methanol hydrochloride]
Selectivity Index (A/B) [1]: >10 | MIC [1]: 0.55 µM | IC50 (HepG2 cells; [2]): > 50 µM | IC50 (Mtb LeuRS): 0.48 µM

C[C@]1(CO)COc2ccc(Cl)c3c2B(OC3CN)O1 (stereo partly drawn) [Example 15, ((2S,8S, or 2R,8R)-2-(aminomethyl)-3-chloro-8-methyl-7,8-dihydro-2H-1,6,9-trioxa-9a-borabenzo[cd]azulen-8-yl)methanol]
Selectivity Index (A/B) [1]: >50 | MIC [1]: 0.93 µM (≈ 0.264 µg/mL) | IC50 (HepG2 cells; [2]): > 50 µM | IC50 (Mtb LeuRS): 3.13 µM

C[C@@]1(CO)COc2ccc(Br)c3c2B(OC3CN)O1 (stereo partly drawn) [Example 16, ((2S,8R, or 2R,8S)-2-(aminomethyl)-3-bromo-8-methyl-7,8-dihydro-2H-1,6,9-trioxa-9a-borabenzo[cd]azulen-8-yl)methanol]
Selectivity Index (A/B) [1]: >40 | MIC [1]: 1.25 µM (≈ 0.41 µg/mL) | IC50 (HepG2 cells; [2]): > 50 µM | IC50 (Mtb LeuRS): 2.69 µM

C[C@]1(CO)COc2ccc(Br)c3c2B(O[C@@H]3CN)O1 [Example 17, ((2S,8S, or 2R,8R)-2-(aminomethyl)-3-bromo-8-methyl-7,8-dihydro-2H-1,6,9-trioxa-9a-borabenzo[cd]azulen-8-yl)methanol]
Selectivity Index (A/B) [1]: >50 | MIC [1]: 0.925 µM (≈ 0.303 µg/mL) | IC50 (HepG2 cells; [2]): > 50 µM | IC50 (Mtb LeuRS): 1.97 µM

c1cc2c3c(c1)OCCOB3OC2 [Example C1-H, reference compound]
IC50 (Human cyto LeuRS): 101 µM | IC50 (Mtb LeuRS): 12.2 µM

NCCOc1cccc2c1B(O)OC2 [Example C3-H, reference compound]
Selectivity Index (A/B) [1]: >0.8 | IC50 (Human cyto LeuRS): 35.7 µM | IC50 (HepG2 cells; Homo sapiens, HepG2, 48 h; read-out: HepG2 cell 48 h Tox50 (A)): > 50 µM | IC50 (Mtb LeuRS): 17.6 µM

CC1COc2c(Cl)cc(Cl)c3c2B(O1)OC3CN (stereo not drawn) [Example C7-Cl2, reference compound]
Selectivity Index (A/B) [1]: >20 | IC50 (HepG2 cells; [2]): > 50 µM | IC50 (Mtb LeuRS): 7.97 µM

CC1(C)COc2c(Cl)ccc3c2B(OC3CN)O1 (stereo not drawn) [Example C8-Cl, reference compound]
Selectivity Index (A/B) [1]: 10 | MIC [1]: > 5 µM | IC50 (HepG2 cells; [2]): > 50 µM | IC50 (Mtb LeuRS): 6.05 µM

CC1(C)COB2OC(CN)c3c(Cl)ccc(c32)O1 (stereo not drawn) [Example C9-Cl, reference compound]
Selectivity Index (A/B) [1]: >10 | Selectivity Index (A/B) ([1]; listed as C9-CI): 10 | IC50 (HepG2 cells; [2]): > 50 µM | IC50 (Mtb LeuRS): 37.6 µM

CC1(C)COB2OC(CN)c3cccc(c32)O1 (stereo not drawn) [Example C10-H, reference compound]
MIC [1]: > 5 µM | IC50 (HepG2 cells; [2]): > 50 µM | IC50 (Mtb LeuRS): > 300 µM

CC1COc2cccc3c2B(O1)OC3CN (stereo not drawn) [Example C11-H, reference compound]
Selectivity Index (A/B) [1]: >32 | MIC (E. coli K12 tolC::Tn10): 2 µg/mL (≈ 9.13 µM) | MIC (P. aeruginosa PA01): 2 µg/mL (≈ 9.13 µM) | MIC (A. baumannii ATCC 17978): 4 µg/mL (≈ 18.3 µM) | MIC (E. coli K12): 2 µg/mL (≈ 9.13 µM) | IC50 (HepG2 cells; [2]): > 50 µM | IC50 (Mtb LeuRS): 0.51 µM

CC1(C)COc2cccc3c2B(OC3CN)O1 (stereo not drawn) [Example C12-H, reference compound]
Selectivity Index (A/B) [1]: >4.9 | MIC [1]: > 5 µM | MIC (E. coli K12 tolC::Tn10): 2 µg/mL (≈ 8.58 µM) | MIC (P. aeruginosa PA01): 16 µg/mL (≈ 68.6 µM) | MIC (A. baumannii ATCC 17978): 4 µg/mL (≈ 17.2 µM) | MIC (E. coli K12): 4 µg/mL (≈ 17.2 µM) | IC50 (HepG2 cells; [2]): 24.5 µM | IC50 (Mtb LeuRS): 1.33 µM

NC[C@H]1OB2OCCOc3c(Cl)ccc1c32 [Example C13-Cl, reference compound]
Selectivity Index (A/B) [1]: >10 | IC50 (HepG2 cells; [2]): > 50 µM

NC[C@H]1OB2OCCOc3c(Cl)cc(Cl)c1c32 [Example C14-Cl2, reference compound]
Selectivity Index (A/B) [1]: >10 | MIC [1]: > 5 µM | IC50 (HepG2 cells; [2]): > 50 µM | IC50 (Mtb LeuRS): 4.67 µM
